Patent publication US20210400971A1, “SAFENING COMPOSITIONS COMPRISING A PHENOXY HERBICIDE AND CLOQUINTOCET FOR CEREAL CROPS AND METHODS THEREOF” (DOW AGROSCIENCES LLC, priority 2018, published 2021)
Like-named read-outs stand apart in the source and are kept apart here.

What was measured:
wheat = details: cited from earlier work
[1] = system: spring wheat (Triticum aestivum; TRZAS); assay: 2016 field trial, Alberta: weed-free tolerance trial, visual phytotoxicity (head deformity) on spring wheat
Experimental: (§1) One field trial was conducted in Alberta, Canada in 2016 to evaluate whether wheat injury caused by 2,4-D could be reduced by tank-mixing with a herbicide that is preformulated with cloquintocet acid. 2,4-D was applied as either an ester (660 gae/L 2,4-D EHE) or choline salt (456 gae/L 2,4-D choline) at a rate of 700 gae/ha. […] Some treatments were applied with Intake adjuvant at 1% v/v. Intake is a blend of a non-ionic surfactant and a paraffinic oil and is used to improve the spreading and wetting of herbicides. Herbicide treatments were made to spring wheat (Triticum aestivum) and durum wheat (Triticum durum) at the B12-B13 stage. Head deformity was evaluated at 42, 55 and 71 days after treatment (DAT).
(§2) This trial was established a weed-free tolerance trial. All herbicide treatments were applied post-emergence in the spring (e.g., Jun. 2, 2016). Herbicides were applied with a tractor-mounted sprayer using CO2 as a propellant. The sprayer delivered a uniform spray pattern that provided thorough coverage of the foliage using a 100 L/ha spray volume. Applications were made to spring wheat and durum wheat at the 2-3 leaf stage. Phytotoxicity to wheat was visually assessed as percent overall injury, compared to an untreated control plot. The overall injury assessments were based on visual ratings of growth inhibition, leaf deformity, epinasty, chlorosis, and delay in maturity. The primary injury observed with 2,4-D was head deformity, and therefore those are the only evaluations summarized below. The trial was designed as a randomized complete block with four replicates. Referring now to Table 1, 2,4-D ester (e.g., 2,4-D EHE) and 2,4-D choline at a rate of 700 gae/ha caused head deformity to spring wheat peaking at 8% and to durum wheat peaking at 4%. […] The results provide that cloquintocet (or herbicides containing cloquintocet) could be mixed with 2,4-D ester or choline to reduce head deformity in spring wheat caused by early applications of 2,4-D.

[2] = system: durum wheat (Triticum durum; TRZDU); assay: 2016 field trial, Alberta: weed-free tolerance trial, visual phytotoxicity (head deformity) on durum wheat
Experimental: as §1, §2

[3] = system: durum wheat (Triticum durum; TRZDU); details: in vivo
Experimental: (§3) Two weed-free tolerance field trials were conducted in Alberta and Manitoba, Canada in 2017 to evaluate whether wheat injury caused by 2,4-D ester could be reduced by tank-mixing with cloquintocet-containing products. […] The rate of cloquintocet parent acid delivered by the tank-mix partners ranged from 3.5 to 63.7 gae/ha. All herbicide treatments were applied post-emergence in the spring (Jun. 16, 2017 to Jun. 26, 2017). Herbicides were applied with tractor- or bicycle-mounted sprayers using CO2 as a propellant. The sprayer delivered a uniform spray pattern that provided thorough coverage of the foliage using a 100 L/ha spray volume. Applications were made to spring wheat (Triticum aestivum) and durum wheat (Triticum durum) at the three-leaf stage. Phytotoxicity to wheat was visually assessed as percent overall injury, compared to an untreated control plot. The overall injury assessments were based on visual ratings of growth inhibition, leaf deformity, epinasty, chlorosis, and delay in maturity. […] Head deformity was evaluated at 10 to 12 weeks after treatment (WAT). The trial was designed as a randomized complete block with four replicates.

[4] = system: spring wheat (Triticum aestivum; TRZAS); details: in vivo
Experimental: as §3

[5] = system: spring wheat (Triticum aestivum; TRZAS); assay: 2018 field trials, Alberta, Saskatchewan and Manitoba: growth inhibition, head deformity and yield loss on spring wheat; type: in vivo; details: for % Growth Inhibition (66 DAT) TRZAS / % Head Deformity (66 DAT) TRZAS / % Yield Loss (77 DAT) TRZAS: Field Trial 1; for % Growth Inhibition (66 DAT) TRZAS / % Head Deformity (66 DAT) TRZAS / % Yield Loss (77 DAT) TRZAS / % Growth Inhibition (7 DAT) TRZAS / % Growth Inhibition (14 DAT) TRZAS: herbicide 700 gae/ha; for % Yield Loss (77 DAT) TRZAS: relative to commercial standard REXADE A at 20 gae/ha; for % Growth Inhibition (7 DAT) TRZAS: Field Trial 2; for % Growth Inhibition (14 DAT) TRZAS: Field Trial 3
Experimental: (§4) Growth inhibition was evaluated at 7, 14, and 66 days after treatment (DAT), head deformity was evaluated at 66 days after treatment (DAT), and yield was taken at 77 days after treatment (DAT). All treatments are illustrated in Table 3.
Weed-free tolerance trials were established. […] The primary injury observed with 2,4-D was growth inhibition, head deformity, and yield loss, therefore those are the only evaluations summarized below.

[6] = system: durum wheat (Triticum durum; TRZDU); assay: 2018 field trials, Alberta, Saskatchewan and Manitoba: growth inhibition, head deformity and yield loss on durum wheat; type: in vivo; details: herbicide 700 gae/ha; for % Growth Inhibition (66 DAT) TRZDU / % Head Deformity (66 DAT) TRZDU / % Yield Loss (77 DAT) TRZDU: Field Trial 1; for % Yield Loss (77 DAT) TRZDU: relative to commercial standard REXADE A at 20 gae/ha; for % Growth Inhibition (7 DAT) TRZDU: Field Trial 2; for % Growth Inhibition (14 DAT) TRZDU: Field Trial 3
Experimental: as §4
Weed-free tolerance trials were established.

[7] = 42 DAT, herbicide 700 gae/ha, safener 0, Intake @1% v/v
[8] = 55 DAT, herbicide 700 gae/ha, safener 0, Intake @1% v/v
[9] = 71 DAT, herbicide 700 gae/ha, safener 0, Intake @1% v/v

In the case of 2,4-D amine, the wheat yield reduction (wheat; applied at Stage 13) is listed as 35% and the wheat yield reduction (wheat; applied at Stage 44) is listed as 15%.

In the case of `O=C(O)COc1ccc(Cl)cc1Cl` [2,4-D Choline, 2-hydroxy-N,N,N-trimethylethanaminium 2-(2,4-dichlorophenoxy)acetate], the “% TRZAS Head Deformity” value [1, 7] is reported as 5.8%, the “% TRZAS Head Deformity” value [1, 8] is reported as 5.8% and the “% TRZAS Head Deformity” value [1, 9] is reported as 3.0%. The “% TRZDU Head Deformity” value [2, 7] was 0.0%, the “% TRZDU Head Deformity” value [2, 8] was 3.5% and the “% TRZDU Head Deformity” value [2, 9] was 0.8%.

In the case of `CCCCC(CC)COC(=O)COc1ccc(Cl)cc1Cl` (stereo not drawn) [2,4-D Ester, 2-ethylhexyl 2-(2,4-dichlorophenoxy)acetate], the wheat yield reduction (wheat; applied at Stage 13) is given as 39%, the wheat yield reduction (wheat; applied at Stage 44) is given as 16% and the “head deformity to durum wheat, peak” value [3] is given as at most 4%. For the same compound, the “% TRZDU Head Deformity” value ([3]; 12 weeks) was 0.0%, the “head deformity to spring wheat, peak” value [4] was at most 10% and the “injury” value ([5]; 2018 trials, applied alone or with Agral 90, spring and durum wheat) was “caused growth inhibition, head deformity and yield loss”. The “% Growth Inhibition (66 DAT) TRZAS” value ([5]; safener 0, Agral 90 @ […]) was 9.1%, the “% Head Deformity (66 DAT) TRZAS” value ([5]; safener 0, Agral 90 @ […]) was 40% and the “% Growth Inhibition (66 DAT) TRZAS” value ([5]; safener 0, no adjuvant) was 10.1%. The “% Head Deformity (66 DAT) TRZAS” value ([5]; safener 0, no adjuvant) was 40%, the “% Yield Loss (77 DAT) TRZAS” value ([5]; safener 0, Agral 90 @ […]) was 3.3% and the “% Yield Loss (77 DAT) TRZAS” value ([5]; safener 0, no adjuvant) was 4.5%. For the same compound, the “% Growth Inhibition (7 DAT) TRZAS” value ([5]; safener 0, Agral 90 @ […]) was 8%, the “% Growth Inhibition (7 DAT) TRZAS” value ([5]; safener 0, no adjuvant) was 4.5% and the “% Growth Inhibition (14 DAT) TRZAS” value ([5]; safener 0, Agral 90 @ […]) was 7.5%. The “% Growth Inhibition (14 DAT) TRZAS” value ([5]; safener 0, no adjuvant) was 7%, the “head deformity to spring wheat, peak” value ([1]; Triticum aestivum (spring wheat), in vivo) was at most 8% and the “% TRZAS Head Deformity” value ([1]; Triticum aestivum (spring wheat), in vivo, 42 days) was 6.5%. The “% TRZAS Head Deformity” value ([1]; Triticum aestivum (spring wheat), in vivo, 55 days) was 7.5%, the “% TRZAS Head Deformity” value ([1]; Triticum aestivum (spring wheat), in vivo, 71 days) was 7.8% and the “head deformity to durum wheat, peak” value ([2]; Triticum durum (durum wheat), in vivo) was at most 4%. For the same compound, the “% TRZDU Head Deformity” value ([2]; Triticum durum (durum wheat), in vivo, 42 days) was 0.0%, the “% TRZDU Head Deformity” value ([2]; Triticum durum (durum wheat), in vivo, 55 days) was 4.3% and the “% TRZDU Head Deformity” value ([2]; Triticum durum (durum wheat), in vivo, 71 days) was 3.0%. For the same compound, the “% Growth Inhibition (66 DAT) TRZDU” value ([6]; safener 0, Agral 90 @ […]) was 1.9%, the “% Head Deformity (66 DAT) TRZDU” value ([6]; safener 0, Agral 90 @ […]) was 5.3% and the “% Growth Inhibition (66 DAT) TRZDU” value ([6]; safener 0, no adjuvant) was 2.6%. For the same compound, the “% Head Deformity (66 DAT) TRZDU” value ([6]; safener 0, no adjuvant) was 5%, the “% Yield Loss (77 DAT) TRZDU” value ([6]; safener 0, Agral 90 @ […]) was 8.8% and the “% Yield Loss (77 DAT) TRZDU” value ([6]; safener 0, no adjuvant) was 6.1%. For the same compound, the “% Growth Inhibition (7 DAT) TRZDU” value ([6]; safener 0, Agral 90 @ […]) was 8.5%, the “% Growth Inhibition (7 DAT) TRZDU” value ([6]; safener 0, no adjuvant) was 5.5% and the “% Growth Inhibition (14 DAT) TRZDU” value ([6]; safener 0, Agral 90 @ […]) was 8.5%. For the same compound, the “% Growth Inhibition (14 DAT) TRZDU” value ([6]; safener 0, no adjuvant) was 7%.
